Measurements as given in patent US12673945B2, “3-((8-((1H-pyrazol-4-yl)amino)imidazo[1,2-a]pyridin-3-yl)ethinyl)-n-phenylbenzamide derivative, method for preparing same, and pharmaceutical composition containing same as active ingredient for prevention or treatment of cancer” (DAEGU-GYEONGBUK MEDICAL INNOVATION FOUNDATION, priority 2020, dated 2026).

Tests used:
[1] = system: TCCS cells; experiment: human CML cell proliferation inhibition; format: cell-based; conditions: 72 hours, Cell Counting Kit-8
Method in brief: (§1)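 Bcr-Abl TCCS and KOPM28 cells, plus their T315I-Bcr-Abl counterparts, are treated with compound (final 0–10 μM, 5-fold steps) for 72 h at 37 °C. Viability is measured by CCK-8 at 450 nm, and GI50 is computed as percent of DMSO control.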

[2] = system: T315I-KOPM28 cells; experiment: human CML cell proliferation inhibition; format: cell-based; conditions: 72 hours, Cell Counting Kit-8
Method in brief: as §1

[3] = system: KOPM28 cells; experiment: human CML cell proliferation inhibition; format: cell-based; conditions: 72 hours, Cell Counting Kit-8
Method in brief: as §1

[4] = system: T315I-TCCS cells; experiment: human CML cell proliferation inhibition; format: cell-based; conditions: 72 hours, Cell Counting Kit-8
Method in brief: as §1

[5] = system: Luc_Ba/F3 T315I-Bcr-Abl cell line; experiment: in vivo pharmacological activity, blood cancer mouse model; set-up: species or system nude mice; conditions: for day after the administration on which all subjects died (FIG. 3): vehicle group: day 21
Description: After the mice were adapted to an animal facility for 1 week, the Luc_Ba/F3 T315I-Bcr-Abl cell line emitting luciferase was transplanted into the caudal vein at the density of 5×10^6/animal. Group separation was performed 3 days after the cell line transplantation. On the day of the group separation, 10 mice were randomly assigned to each group of 5 groups so that the luminescence values were equal after luminescence measurement using IVIS spectrum-CT optical imaging equipment.
In addition, the body weight and survival rate of each experimental group were monitored.
Statistical analysis was performed using GraphPad Prism 8, and the statistical significance of the survival rate was confirmed using unpaired t test and log-rank (Mantel-Cox) test.

[6] = oral pharmacokinetic test; format: in vivo, SD rats; conditions: SD, plasma; rat, 10 mg/Kg PO, vehicle A (NMP:PEG400=5:95)
Description: To evaluate the pharmacokinetic properties in vivo, oral pharmacokinetic test was performed with the compounds of Comparative Examples 1 and 4 and Examples 1 and 4 using mice and rats, and the PK parameters are shown in Table 10.
ICR mice (6-7 weeks old) and SD rats (6-7 weeks old) were used for the test. The fasted group was fasted about 16 hours before oral administration, and the fed group was fasted about 4 hours before oral administration. The test drug for oral administration was used by dissolving the drug in a vehicle at a concentration of 1 mg/mL for use, and blood samples were collected (time point: 0.25, 0.5, 1, 2, 4, 8, 12, 24, 32, n=3) from the heart (mouse, 500 μL/time point) or jugular vein (rat, 120 μL/time point). Blood was centrifuged at 12,000 G at 4° C. for 2 minutes to separate plasma, and stored at −80° C. until analysis. • Vehicle A (NMP:PEG400=5:95) • Vehicle B (0.5% methyl cellulose) 6-2. Sampling and Pretreatment
To 20 μl of plasma, 180 μl of acetonitrile (including internal standard) was added. The mixture was vortexed and centrifuged for 5 minutes at 15,000 rpm at 4° C. The supernatant obtained after centrifugation was analyzed by LC-MS/MS.
PK parameters were calculated with a non-compartmental analysis model using Phoenix WinNonlin 6.4 version (Pharsight, USA) program.

With `Cc1cn(-c2cc(NC(=O)c3cc(C#Cc4cnc5c(Nc6cnn(C)c6)cccn45)c(C)cc3F)cc(C(F)(F)F)c2)cn1` [Example 4, 2-fluoro-4-methyl-N-(3-(4-methyl-1H-imidazol-1-yl)-5-(trifluoromethyl)phenyl)-5-((8-((1-methyl-1H-pyrazol-4-yl)amino)imidazo[1,2-a]pyridin-3-yl)ethynyl)benzamide] the GI50 [1] was < 10 nM, the GI50 [2] was 100 nM and the GI50 [3] was 100 nM. It also gave a GI50 [4] of 100 nM.

In the case of `Cc1cn(-c2cc(NC(=O)c3cc(C#Cc4cnc5c(Nc6cnn(C)c6)cccn45)c(C)cc3F)cc(C(C)(C)C#N)c2)cn1` [Example 1, N-(3-(2-cyanopropane-2-yl)-5-(4-methyl-1H-imidazol-1-yl)phenyl)-2-fluoro-4-methyl-5-((8-((1-methyl-1H-pyrazol-4-yl)amino)imidazo[1,2-a]pyridin-3-yl)ethynyl)benzamide], the GI50 [1] is reported as < 10 nM, the GI50 [2] is reported as 100 nM and the GI50 [3] is reported as < 10 nM. For the same molecule, the GI50 [4] was < 10 nM, the “day after the administration on which all subjects died (FIG. 3)” value (from here on “day after the administration”) ([5]; 25 mg/kg oral once a day for 10 days) was 31 days and the “day after the administration” value ([5]; 50 mg/kg oral once a day for 10 days) was 32 days. For the same molecule, the “day after the administration” value ([5]; 100 mg/kg oral once a day for 10 days) was 35 days, the “dose dependence of luminescence signal (FIG. 2)” value ([5]; 25, 50, 100 mg/kg oral once a day for 10 days) was “decreased dose-dependently” and the “luminescence values in optical images compared to the vehicle group (FIG. 1)” value ([5]; all treated groups, oral once a day for 10 days, images days 0, 4, 11, 18) was “weak luminescence values”. For the same molecule, the “luminescence signals emitted from blood cancer cells compared to the vehicle group (FIG. 2)” value ([5]; day 18 after administration, 25, 50, 100 mg/kg oral) was “weak luminescence signals”, the AUC(0-t) [6] was 15900 ng·h/mL and the Cmax [6] was 2000 ng/mL. The half-life [6] was 3.3 h.
